# Experimental data reported in paper PMC11539229 (Antimicrobial Agents and Chemotherapy, 2024).
# Read-outs that look alike come from different tables or passages of the source.
# Assays:
# [1] = test system: drug-susceptible, MDR and XDR M.tb clinical isolates; assay: microbe, parasite or virus in culture; type: cell-based, M. tuberculosis; conditions: drug-susceptible, MDR and XDR clinical isolates
# [2] = mouse, in vivo
# Excerpt: (§1) The calculated exposures at EDmax for GSK138 and GSK693 were obtained using the intravenous mouse PK profiles fitting to a bicompartmental model to obtain those parameters to simulate the oral whole blood exposures at EDmax. Additionally, a monocompartmental model was used to fit the experimental oral pharmacokinetic studies in non-infected mouse together with measured plasma concentrations obtained from the sparse sampling in the experiment 2 in infected mice. Parameters obtained from this fitting were used to simulate the profile after GSK693 administration at 100, 200, and 300 mg/kg in the combination study and to calculate the associated exposures (see Table 2).
# M. tuberculosis H37Rv = type: in vivo, BALB/c mice; conditions: for additional reduction of lung CFU counts on addition to RZ: vs RZ; for reduction of lung CFU counts: monotherapy 300 mg/kg; for effect of addition to BPaL on bactericidal activity: experiment 5
# [3] = Sparse plasma sampling in infected mice of the combination study (experiment 2); type: in vivo, mouse; conditions: for Plasma AUC0–24 h: monocompartmental model, combination study; for Blood AUC0–24 h: plasma value transformed with blood/plasma ratio 1.79
# Excerpt: as §1
# Tail vein blood was collected at the indicated time points. Briefly, an incision was made in the lateral tail vein. Blood (20–50 µL) was collected in BD Microtainer PST lithium heparin tubes from each mouse. The tubes were kept on ice before being centrifuged at 8,000 rpm for 5 min. The supernatant plasma (15–30 µL) was transferred to labeled microcentrifuge tubes, frozen, and stored at −80°C and then shipped on dry ice to GSK for further analysis.
# Ten microliters of plasma or blood samples thawed at ambient temperature was mixed with 200 µL of acetonitrile (ACN):MeOH (80:20). After this protein precipitation step, samples were filtered using a 0.45-µm filter plate [Multiscreen Solvinert 0.45-μm polytetrafluoroethylene (PTFE), Millipore] and then filtered using a 0.2-µm filter [AcroPrep Advance 96 Filter Plate 350 µL, 0.2-µm polytetrafluoroethylene (PTFE)] to ensure sterilization prior to LC-MS analysis.
# [4] = mouse, in vivo, 10 mg/kg; cited from earlier work
smiles,measurement,setting,value
Cc1csc([C@](C)(O)c2nnc(Nc3ccn(Cc4csc(C)n4)n3)s2)n1 [GSK693],MIC90,[1],1.87 µM
same,exposure needed to achieve the maximum effect in monotherapy in the acute infection model,[2],"110,200 ng·h/mL"
same,additional reduction of lung CFU counts on addition to RZ,"M. tuberculosis H37Rv; experiment 1, 300 mg/kg, week 8",1.44 log
same,"additive effect when combined with sutezolid, linezolid, or pretomanid (lung CFU)","M. tuberculosis H37Rv; experiment 1, GSK693 300 mg/kg",No additive effect
same,reduction of lung CFU counts,"M. tuberculosis H37Rv; experiment 1, 4 weeks of treatment",1.34 log10
same,reduction of lung CFU counts,"M. tuberculosis H37Rv; experiment 1, 8 weeks of treatment",2.33 log10
same,additional reduction of lung CFU counts on addition to RZ,"M. tuberculosis H37Rv; experiment 2, 100 mg/kg, 8 weeks",1.17 log
same,additional reduction of lung CFU counts on addition to RZ,"M. tuberculosis H37Rv; experiment 2, 200 mg/kg, 8 weeks",1.28 log
same,additional reduction of lung CFU counts on addition to RZ,"M. tuberculosis H37Rv; experiment 2, 300 mg/kg, 8 weeks",0.76 log
same,activity of the combination with RZ vs RZ alone or RZ with isoniazid,"M. tuberculosis H37Rv; mouse, in vivo",significantly more active
same,effect on the activity of the RZ combination,"M. tuberculosis H37Rv; mouse, in vivo",significantly enhanced
same,efficacy in combination with pretomanid and pyrazinamide compared with moxifloxacin,"M. tuberculosis H37Rv; mouse, in vivo, 300 mg/kg",nor was it as effective as moxifloxacin
same,Plasma AUC0–24 h,[3]; 100 mg/kg,"12,867 ng·h/mL"
same,Blood AUC0–24 h,[3]; 100 mg/kg,"23,032 ng·h/mL"
same,Plasma AUC0–24 h,[3]; 200 mg/kg,"27,337 ng·h/mL"
same,Blood AUC0–24 h,[3]; 200 mg/kg,"48,933 ng·h/mL"
same,Plasma AUC0–24 h,[3]; 300 mg/kg,"64,866 ng·h/mL"
same,Blood AUC0–24 h,[3]; 300 mg/kg,"116,110 ng·h/mL"
"CO[C@H]1/C=C/O[C@@]2(C)Oc3c(C)c(O)c4c(O)c(c(/C=N/N5CCN(C)CC5)c(O)c4c3C2=O)NC(=O)/C(C)=C\C=C\[C@H](C)[C@H](O)[C@@H](C)[C@@H](O)[C@@H](C)[C@H](OC(C)=O)[C@@H]1C [rifampicin, reference compound]",AUC(0-t),"[3]; mouse, plasma, rifampicin co-administered with pyrazinamide, experiment 2, read-out: Plasma AUC0–24 h",68500 ng·h/mL
same,AUC0–24 h,[4],"87,200–142,100 ng·h/mL"
"COc1c(N2C[C@@H]3CCCN[C@@H]3C2)c(F)cc2c(=O)c(C(=O)O)cn(C3CC3)c12 [moxifloxacin, reference compound]",effect of addition to BPaL on bactericidal activity,M. tuberculosis H37Rv; 4 weeks of treatment,trend toward enhanced activity
"NNC(=O)c1ccncc1 [isoniazid, reference compound]",effect of addition to BPaL on bactericidal activity,M. tuberculosis H37Rv; 4 weeks of treatment,significantly increased the bactericidal activity
same,effect on the activity of the RZ combination,"M. tuberculosis H37Rv; mouse, in vivo",did not enhance the activity
